Laboratory results as given in patent US20140011799A1 (Bristol-Myers Squibb Company, priority 2012, published 2014).

Each molecule was assayed against T1, Endothelial lipase (EL) (Homo sapiens, UniProt Q9Y5X9) (assay: Endothelial lipase (EL) enzymatic assay, fluorescent substrate A10070 in DMPG vesicles). Conditions: EL from conditioned media of HT-1080 cells; compound preincubated 30 min at 37° C; read-out: EL IC50.
T1 construct: HT-1080 cells that were transformed using RAGE technology (Athersys) to overexpress endogenous EL; endogenous in cells; conditioned medium used
T1 sequence (Q9Y5X9 21-500): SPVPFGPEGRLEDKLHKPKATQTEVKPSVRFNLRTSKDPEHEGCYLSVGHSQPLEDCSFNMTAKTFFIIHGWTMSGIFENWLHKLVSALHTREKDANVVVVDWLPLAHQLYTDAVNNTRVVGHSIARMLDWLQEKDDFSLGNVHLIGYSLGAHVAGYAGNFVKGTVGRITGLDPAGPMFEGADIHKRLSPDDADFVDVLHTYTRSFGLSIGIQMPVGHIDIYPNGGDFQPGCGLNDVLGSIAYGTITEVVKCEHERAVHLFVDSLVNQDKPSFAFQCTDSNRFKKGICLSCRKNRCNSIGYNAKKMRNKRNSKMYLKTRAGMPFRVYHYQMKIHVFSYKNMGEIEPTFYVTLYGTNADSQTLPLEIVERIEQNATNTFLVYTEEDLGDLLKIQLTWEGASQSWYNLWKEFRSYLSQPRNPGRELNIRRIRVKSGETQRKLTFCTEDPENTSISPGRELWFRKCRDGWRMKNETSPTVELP
Type: biochemical
Description: Endothelial lipase (EL) and hepatic lipase (HL) activities were measured using a fluorescent substrate, A10070, (Invitrogen, CA) doped into an artificial vesicle containing DMPG (Avanti Polar Lipids) as the excipient. Vesicles were prepared by combining 571 μL of 29 mM DMPG in a 1:1 mixture of MeOH and CHCl3 with 2000 μL of 1 mM A10070 in a 1:1 mixture of MeOH and CHCl3. The mixture was dried under nitrogen in multiple vials then resuspended in 20 mL total volume of 50 mM HEPES pH 8.0 buffer containing 50 mM NaCl and 0.2 mM EDTA. The sample was allowed to sit at room temperature for 15 min and then was sonicated 3×4 mins on ice with a Branson Sonicator using duty cycle 1. This preparation provides vesicles with a mole fraction of 0.11 for the FRET substrate.
The enzymatic assay was measured using 384-well white Optiplates. Each well contained 20 μL of assay buffer (50 mM HEPES pH 8.0, 50 mM NaCl and 1 mM CaCl2) and 0.25 μL of a DMSO solution containing a compound of interest. EL or HL (10 μL) was added and allowed to incubate with the compound for 30 min at 37° C. The source of EL was conditioned media obtained from HT-1080 cells that were transformed using RAGE technology (Athersys) to overexpress endogenous EL, and HL was partially purified from conditioned media obtained from COS cells overexpressing HL. The reaction was started by the addition of 10 μL of a 1:10 dilution of vesicles. The final total reaction volume was […]. The reaction rates were measured on a Gemini plate reader with an excitation wavelength of 490 nm and an emission wavelength of 530 nm. Readings were taken over a period of 60 minutes, and the slope between 300 and 900 secs of the readout was used to calculate the rate of the reaction.

IC50 [µM] | SMILES
3.75 | CC(c1nnc(CNS(N)(=O)=O)o1)(c1nc2ccc(-c3ccccc3)cc2s1)S(C)(=O)=O (single isomer, unassigned) [Reference 1, Isomer A, N-((5-(1-(Methylsulfonyl)-1-(6-phenyl-1,3-benzothiazol-2-yl)ethyl)-1,3,4-oxadiazol-2-yl)methyl)sulfamide, reference compound]
5.2 | CC(c1nnc(CNS(N)(=O)=O)o1)(c1nc2ccc(-c3ccccc3)cc2s1)S(C)(=O)=O (single isomer, unassigned) [Reference 1, Isomer B, N-((5-(1-(Methylsulfonyl)-1-(6-phenyl-1,3-benzothiazol-2-yl)ethyl)-1,3,4-oxadiazol-2-yl)methyl)sulfamide, reference compound]
< 0.01 | CC1(Cc2nnc(C(c3nc4ccc(-c5ccc(F)nc5)cc4s3)S(C)(=O)=O)o2)SC(=O)NC1=O (single isomer, unassigned; isomer a) [Example 17, 5-((5-((6-(6-fluoropyridin-3-yl)benzo[d]thiazol-2-yl)(methylsulfonyl)methyl)-1,3,4-oxadiazol-2-yl)methyl)-5-methylthiazolidine-2,4-dione (Isomer A)]
0.281 | CC1(Cc2nnc(C(c3nc4ccc(-c5ccc(F)nc5)cc4s3)S(C)(=O)=O)o2)NC(=O)NC1=O (single isomer, unassigned; isomer a) [Example 21, 5-((5-((6-(6-fluoropyridin-3-yl)benzo[d]thiazol-2-yl)(methylsulfonyl)methyl)-1,3,4-oxadiazol-2-yl)methyl)-5-methylimidazolidine-2,4-dione (Isomer A)]
< 0.01 | CC1(Cc2nnc(C(c3nc4ccc(-c5ccccc5)cc4s3)S(C)(=O)=O)o2)NC(=O)N(CC(F)(F)F)C1=O (single isomer, unassigned; isomer a) [Example 27, 5-methyl-5-((5-(methylsulfonyl(6-phenylbenzo[d]thiazol-2-yl)methyl)-1,3,4-oxadiazol-2-yl)methyl)-3-(2,2,2-trifluoroethyl)imidazolidine-2,4-dione (Isomer A)]
0.065 | CC1(Cc2nnc(C(c3nc4ccc(-c5ccc(C(=O)N6CCOCC6)cc5)cc4s3)S(C)(=O)=O)o2)NC(=O)NC1=O (single isomer, unassigned; isomer b) [Example 15, 5-methyl-5-((5-((methylsulfonyl)(6-(4-(morpholine-4-carbonyl)phenyl)benzo[d]thiazol-2-yl)methyl)-1,3,4-oxadiazol-2-yl)methyl)imidazolidine-2,4-dione (Isomer B)]
< 0.01 | CC1(Cc2nnc(C(c3nc4ccc(-c5ccc(F)nc5)cc4s3)S(C)(=O)=O)o2)SC(=O)NC1=O (single isomer, unassigned; isomer b) [Example 18, 5-((5-((6-(6-fluoropyridin-3-yl)benzo[d]thiazol-2-yl)(methylsulfonyl)methyl)-1,3,4-oxadiazol-2-yl)methyl)-5-methylthiazolidine-2,4-dione (Isomer B)]
0.027 | CC1(Cc2nnc(C(c3nc4ccc(-c5ccc(F)nc5)cc4s3)S(C)(=O)=O)o2)NC(=O)NC1=O (single isomer, unassigned; isomer b) [Example 22, 5-((5-((6-(6-fluoropyridin-3-yl)benzo[d]thiazol-2-yl)(methylsulfonyl)methyl)-1,3,4-oxadiazol-2-yl)methyl)-5-methylimidazolidine-2,4-dione (Isomer B)]
< 0.01 | CC1(Cc2nnc(Cc3nc4ccc(-c5ccccc5)cc4s3)o2)NC(=O)N(CC(F)(F)F)C1=O (single isomer, unassigned; isomer b) [Example 26, 5-Methyl-5-((5-((6-phenylbenzo[d]thiazol-2-yl)methyl)-1,3,4-oxadiazol-2-yl)methyl)-3-(2,2,2-trifluoroethyl)imidazolidine-2,4-dione (Isomer B)]

Continued, molecule first:

SMILES | IC50 [µM]
CC1(Cc2nnc(C(c3nc4ccc(-c5ccc(F)nc5)cc4s3)S(=O)(=O)Cc3ccccc3)o2)SC(=O)NC1=O (single isomer, unassigned; isomer a) [Example 1, 5-((5-((Benzylsulfonyl)(6-(6-fluoropyridin-3-yl)benzo[d]thiazol-2-yl)methyl)-1,3,4-oxadiazol-2-yl)methyl)-5-methylthiazolidine-2,4-dione (Isomer A)] | < 0.01
CC1(Cc2nnc(C(c3nc4ccc(-c5ccc(F)nc5)cc4s3)S(=O)(=O)Cc3ccccc3)o2)NC(=O)NC1=O (single isomer, unassigned; isomer a) [Example 6, 5-((5-((benzylsulfonyl)(6-(6-fluoropyridin-3-yl)benzo[d]thiazol-2-yl)methyl)-1,3,4-oxadiazol-2-yl)methyl)-5-methylimidazolidine-2,4-dione (Isomer A)] | 0.011
CC1(Cc2nnc(C(c3nc4ccc(-c5ccnc(F)c5)cc4s3)S(=O)(=O)Cc3ccccc3)o2)NC(=O)NC1=O (single isomer, unassigned; isomer a) [Example 9, 5-((5-((benzylsulfonyl)(6-(2-fluoropyridin-4-yl)benzo[d]thiazol-2-yl)methyl)-1,3,4-oxadiazol-2-yl)methyl)-5-methylimidazolidine-2,4-dione (Isomer A)] | 0.122
CC1(Cc2nnc(C(c3nc4ccc(-c5ccnc(F)c5)cc4s3)S(C)(=O)=O)o2)NC(=O)NC1=O (single isomer, unassigned; isomer a) [Example 13, 5-((5-((6-(2-fluoropyridin-4-yl)benzo[d]thiazol-2-yl)(methylsulfonyl)methyl)-1,3,4-oxadiazol-2-yl)methyl)-5-methylimidazolidine-2,4-dione (Isomer A)] | < 0.01
CC1(Cc2nnc(C(c3nc4ccc(-c5ccc(C(=O)N6CCOCC6)cc5)cc4s3)S(C)(=O)=O)o2)NC(=O)NC1=O (single isomer, unassigned; isomer a) [Example 14, 5-methyl-5-((5-((methylsulfonyl)(6-(4-(morpholine-4-carbonyl)phenyl)benzo[d]thiazol-2-yl)methyl)-1,3,4-oxadiazol-2-yl)methyl)imidazolidine-2,4-dione (Isomer A)] | 0.012
CC1(Cc2nnc(C(c3nc4ccc(-c5ccc(F)nc5)cc4s3)S(=O)(=O)Cc3ccccc3)o2)SC(=O)NC1=O (single isomer, unassigned; isomer b) [Example 4, 5-((5-((benzylsulfonyl)(6-(6-fluoropyridin-3-yl)benzo[d]thiazol-2-yl)methyl)-1,3,4-oxadiazol-2-yl)methyl)-5-methylthiazolidine-2,4-dione (Isomer B)] | < 0.01
CC1(Cc2nnc(C(c3nc4ccc(-c5ccc(F)nc5)cc4s3)S(=O)(=O)Cc3ccccc3)o2)NC(=O)NC1=O (single isomer, unassigned; isomer b) [Example 7, 5-((5-((benzylsulfonyl)(6-(6-fluoropyridin-3-yl)benzo[d]thiazol-2-yl)methyl)-1,3,4-oxadiazol-2-yl)methyl)-5-methylimidazolidine-2,4-dione (Isomer B)] | 0.188
CC1(Cc2nnc(C(c3nc4ccc(-c5ccnc(F)c5)cc4s3)S(=O)(=O)Cc3ccccc3)o2)NC(=O)NC1=O (single isomer, unassigned; isomer b) [Example 10, 5-((5-((benzylsulfonyl)(6-(2-fluoropyridin-4-yl)benzo[d]thiazol-2-yl)methyl)-1,3,4-oxadiazol-2-yl)methyl)-5-methylimidazolidine-2,4-dione (Isomer B)] | 0.019
CC1(Cc2nnc(C(c3nc4ccc(-c5ccnc(F)c5)cc4s3)S(C)(=O)=O)o2)NC(=O)NC1=O (single isomer, unassigned; isomer b) [Example 12, 5-((5-((6-(2-fluoropyridin-4-yl)benzo[d]thiazol-2-yl)(methylsulfonyl)methyl)-1,3,4-oxadiazol-2-yl)methyl)-5-methylimidazolidine-2,4-dione (Isomer B)] | 0.054
CS(=O)(=O)C(c1nnc(CC2SC(=O)NC2=O)o1)c1nc2ccc(-c3ccc(C(=O)N4CCOCC4)cc3)cc2s1 (stereo not shown) [Example 2, 5-((5-((methylsulfonyl)(6-(4-(4-morpholinylcarbonyl)phenyl)-1,3-benzothiazol-2-yl)methyl)-1,3,4-oxadiazol-2-yl)methyl)-1,3-thiazolidine-2,4-dione] | < 0.01
